Measured values taken from ChEMBL document CHEMBL4002566, “S-substituted 3,5-dinitrophenyl 1,3,4-oxadiazole-2-thiols and tetrazole-5-thiols as highly efficient antitubercular agents” (Eur J Med Chem, 2017).
≈ marks a conversion by molar mass, not a printed value.

Key:
[1] = tested on: Staphylococcus epidermidis; assay: Antibacterial activity against Staphylococcus epidermidis HK6996/08 after 24 hrs by broth microdilution method; type: functional; details: HK6996/08, 24 h
Staphylococcus aureus [2] = assay: Antibacterial activity against Staphylococcus aureus ATCC 6538 after 24 hrs by broth microdilution method; type: functional; details: ATCC 6538, 24 h
Enterococcus sp. [3] = assay: Antibacterial activity against Enterococcus sp. HK14365/08 after 24 hrs by broth microdilution method; type: functional; details: HK14365/08, 24 h
Staphylococcus aureus [4] = assay: Antibacterial activity against methicillin-resistant Staphylococcus aureus HK5996/08 after 24 hrs by broth microdilution method; type: functional; details: HK5996/08, 24 h
Pichia kudriavzevii [5] = assay: Antifungal activity against Candida krusei E28 after 24 hrs by broth microdilution method; type: functional; details: E28, 24 h
[6] = Cytotoxicity against human HepG2 cells assessed as cell viability at 30 uM after 48 hrs by MTS assay relative to control; type: cell-based; details: read-out: Activity
Trichosporon asahii [7] = assay: Antifungal activity against Trichosporon asahii 1188 after 48 hrs by broth microdilution method; type: functional; details: Trichosporon asahii, 1188, 48 h
Mycobacterium kansasii [8] = assay: Antimycobacterial activity against Mycobacterium kansasii CNCTC My 235/80 after 14 days by micromethod; type: functional; details: CNCTC My 235/80, 336 h
Nakaseomyces glabratus [9] = assay: Antifungal activity against Candida glabrata 20/I after 24 hrs by broth microdilution method; type: functional
Staphylococcus aureus [10] = assay: Antibacterial activity against Staphylococcus aureus ATCC 6538 after 48 hrs by broth microdilution method; type: functional; details: ATCC 6538, 48 h
[11] = Cytotoxicity against MDCK cells assessed as cell viability at 30 uM after 48 hrs by MTS assay relative to control; type: cell-based, Canis lupus familiaris; details: dog, read-out: Activity
Huh-7 = assay: Cytotoxicity against human HuH7 cells assessed as cell viability after 48 hrs by MTS assay; type: cell-based; details: Huh-7, 48 h
Aspergillus fumigatus [12] = assay: Antifungal activity against Aspergillus fumigatus 231 after 24 hrs by broth microdilution method; type: functional; details: Aspergillus fumigatus, 231, 24 h
Mycobacterium kansasii [13] = assay: Antimycobacterial activity against Mycobacterium kansasii 6509/96 clinical isolate after 21 days by micromethod; type: functional; details: 6509/96, 504 h
Klebsiella pneumoniae [14] = assay: Antibacterial activity against Klebsiella pneumoniae HK11750/08 after 48 hrs by broth microdilution method; type: functional; details: HK11750/08, 48 h
Mycobacterium kansasii [15] = assay: Antimycobacterial activity against Mycobacterium kansasii CNCTC My 235/80 after 7 days by micromethod; type: functional; details: CNCTC My 235/80, 168 h
Escherichia coli [16] = assay: Antibacterial activity against Escherichia coli ATCC 8739 after 24 hrs by broth microdilution method; type: functional; details: ATCC 8739, 24 h
Klebsiella pneumoniae [17] = assay: Antibacterial activity against extended spectrum beta-lactamase producing Klebsiella pneumoniae HK14368/08 after 48 hrs by broth microdilution method; type: functional; details: HK14368/08, 48 h
Enterococcus sp. [18] = assay: Antibacterial activity against Enterococcus sp. HK14365/08 after 48 hrs by broth microdilution method; type: functional; details: HK14365/08, 48 h
A-431 = assay: Cytotoxicity against human A431 cells assessed as cell viability after 48 hrs by MTS assay; type: cell-based; details: A-431, 48 h
Pseudomonas aeruginosa [19] = assay: Antibacterial activity against Pseudomonas aeruginosa ATCC 9027 after 24 hrs by broth microdilution method; type: functional; details: ATCC 9027, 24 h
[20] = tested on: Mycobacterium tuberculosis; assay: Antimycobacterial activity against Mycobacterium tuberculosis CNCTC My 331/88 after 21 days by micromethod; type: functional; details: CNCTC My 331/88, 504 h
[21] = Selectivity index, ratio of IC50 for human HepG2 cells to MIC for Mycobacterium tuberculosis; type: toxicity; details: read-out: Selectivity Index
Lichtheimia corymbifera [22] = assay: Antifungal activity against Absidia corymbifera 272 after 48 hrs by broth microdilution method; type: functional; details: Lichtheimia corymbifera, 272, 48 h
Klebsiella pneumoniae [23] = assay: Antibacterial activity against extended spectrum beta-lactamase producing Klebsiella pneumoniae HK14368/08 after 24 hrs by broth microdilution method; type: functional; details: HK14368/08, 24 h
Candida tropicalis [24] = assay: Antifungal activity against Candida tropicalis 156 after 48 hrs by broth microdilution method; type: functional; details: Candida tropicalis, 156, 48 h
Mycobacterium kansasii [25] = assay: Antimycobacterial activity against Mycobacterium kansasii CNCTC My 235/80 after 21 days by micromethod; type: functional; details: CNCTC My 235/80, 504 h
Pseudomonas aeruginosa [26] = assay: Antibacterial activity against Pseudomonas aeruginosa ATCC 9027 after 48 hrs by broth microdilution method; type: functional; details: ATCC 9027, 48 h
Mycobacterium kansasii [27] = assay: Antimycobacterial activity against Mycobacterium kansasii 6509/96 clinical isolate after 14 days by micromethod; type: functional; details: 6509/96, 336 h
[28] = tested on: Trichophyton mentagrophytes; assay: Antifungal activity against Trichophyton mentagrophytes 445 after 72 hrs by broth microdilution method; type: functional; details: Trichophyton mentagrophytes, 445, 72 h
HepG2 = assay: Cytotoxicity against human HepG2 cells assessed as cell viability after 48 hrs by MTS assay; type: cell-based; details: HepG2, 48 h
Candida albicans [29] = assay: Antifungal activity against Candida albicans ATCC 44859 after 24 hrs by broth microdilution method; type: functional; details: ATCC 44859, 24 h
[30] = tested on: Staphylococcus epidermidis; assay: Antibacterial activity against Staphylococcus epidermidis HK6996/08 after 48 hrs by broth microdilution method; type: functional; details: HK6996/08, 48 h
Candida albicans [31] = assay: Antifungal activity against Candida albicans ATCC 44859 after 48 hrs by broth microdilution method; type: functional; details: ATCC 44859, 48 h
MDCK = assay: Cytotoxicity against MDCK cells assessed as cell viability after 48 hrs by MTS assay; type: cell-based; details: Canis lupus familiaris
[32] = Cytotoxicity against human HuH7 cells assessed as cell viability at 30 uM after 48 hrs by MTS assay relative to control; type: cell-based, Huh-7; details: read-out: Activity
Klebsiella pneumoniae [33] = assay: Antibacterial activity against Klebsiella pneumoniae HK11750/08 after 24 hrs by broth microdilution method; type: functional; details: HK11750/08, 24 h
Lichtheimia corymbifera [34] = assay: Antifungal activity against Absidia corymbifera 272 after 24 hrs by broth microdilution method; type: functional; details: Lichtheimia corymbifera, 272, 24 h
Candida tropicalis [35] = assay: Antifungal activity against Candida tropicalis 156 after 24 hrs by broth microdilution method; type: functional; details: Candida tropicalis, 156, 24 h
Nakaseomyces glabratus [36] = assay: Antifungal activity against Candida glabrata 20/I after 48 hrs by broth microdilution method; type: functional
Pichia kudriavzevii [37] = assay: Antifungal activity against Candida krusei E28 after 48 hrs by broth microdilution method; type: functional; details: E28, 48 h
[38] = tested on: Mycobacterium tuberculosis; assay: Antimycobacterial activity against Mycobacterium tuberculosis CNCTC My 331/88 after 14 days by micromethod; type: functional; details: CNCTC My 331/88, 336 h
Escherichia coli [39] = assay: Antibacterial activity against Escherichia coli ATCC 8739 after 48 hrs by broth microdilution method; type: functional; details: ATCC 8739, 48 h
[40] = Cytotoxicity against human A431 cells assessed as cell viability at 30 uM after 48 hrs by MTS assay relative to control; type: cell-based, A-431; details: read-out: Activity
Trichosporon asahii [41] = assay: Antifungal activity against Trichosporon asahii 1188 after 24 hrs by broth microdilution method; type: functional; details: Trichosporon asahii, 1188, 24 h
Aspergillus fumigatus [42] = assay: Antifungal activity against Aspergillus fumigatus 231 after 48 hrs by broth microdilution method; type: functional; details: Aspergillus fumigatus, 231, 48 h
Staphylococcus aureus [43] = assay: Antibacterial activity against methicillin-resistant Staphylococcus aureus HK5996/08 after 48 hrs by broth microdilution method; type: functional; details: HK5996/08, 48 h
[44] = tested on: Trichophyton mentagrophytes; assay: Antifungal activity against Trichophyton mentagrophytes 445 after 120 hrs by broth microdilution method; type: functional; details: Trichophyton mentagrophytes, 445, 120 h
Mycobacterium kansasii [45] = assay: Antimycobacterial activity against Mycobacterium kansasii 6509/96 clinical isolate after 7 days by micromethod; type: functional; details: 6509/96, 168 h

CN[C@H](CC(C)C)C(=O)N[C@H]1C(=O)N[C@@H](CC(N)=O)C(=O)N[C@H]2C(=O)N[C@H]3C(=O)N[C@H](C(=O)N[C@H](C(=O)O)c4cc(O)cc(O)c4-c4cc3ccc4O)[C@H](O)c3ccc(c(Cl)c3)Oc3cc2cc(c3O[C@@H]2O[C@H](CO)[C@@H](O)[C@H](O)[C@H]2O[C@H]2C[C@](C)(N)[C@H](O)[C@H](C)O2)Oc2ccc(cc2Cl)[C@H]1O [VANCOMYCIN] showed an MIC [1] of 0.35 µM (≈ 0.507 µg/mL), an MIC (Staphylococcus aureus [2]) of 0.35 µM (≈ 0.507 µg/mL) and an MIC (Enterococcus sp. [3]) of 0.7 µM (≈ 1.01 µg/mL). For the same compound, the MIC (Staphylococcus aureus [4]) was 0.35 µM (≈ 0.507 µg/mL).

With O=[N+]([O-])c1cc(-c2nnc(SCc3ccc(Cl)cc3)o2)cc([N+](=O)[O-])c1 the MIC (Pichia kudriavzevii [5]) was greater than 125 µM, the viability at 48 h, 30 µM [6] was 126% and the MIC (Trichosporon asahii [7]) was greater than 125 µM. It also gave an MIC (Mycobacterium kansasii [8]) of 0.06 µM (≈ 0.0236 µg/mL), an MIC (Nakaseomyces glabratus [9]) greater than 125 µM and an MIC (Staphylococcus aureus [10]) greater than 500 µM. The viability at 48 h, 30 µM [11] was 110%, the MIC [1] was greater than 500 µM and the IC50 (Huh-7) was greater than 30 µM. For the same compound, the MIC (Staphylococcus aureus [2]) was greater than 500 µM, the MIC (Aspergillus fumigatus [12]) was greater than 125 µM and the MIC (Mycobacterium kansasii [13]) was 0.03 µM (≈ 0.0118 µg/mL). The MIC (Klebsiella pneumoniae [14]) was greater than 500 µM, the MIC (Mycobacterium kansasii [15]) was 0.03 µM (≈ 0.0118 µg/mL) and the MIC (Escherichia coli [16]) was greater than 500 µM. It also gave an MIC (Klebsiella pneumoniae [17]) greater than 500 µM, an MIC (Enterococcus sp. [18]) greater than 500 µM and an IC50 (A-431) greater than 30 µM. The MIC (Pseudomonas aeruginosa [19]) was greater than 500 µM, the MIC [20] was 0.06 µM (≈ 0.0236 µg/mL) and the selectivity ratio [21] was greater than 1000. For the same compound, the MIC (Lichtheimia corymbifera [22]) was greater than 125 µM, the MIC (Klebsiella pneumoniae [23]) was greater than 500 µM and the MIC (Candida tropicalis [24]) was greater than 125 µM. For the same compound, the MIC (Mycobacterium kansasii [25]) was 0.125 µM (≈ 0.0491 µg/mL), the MIC (Pseudomonas aeruginosa [26]) was greater than 500 µM and the MIC (Mycobacterium kansasii [27]) was 0.03 µM (≈ 0.0118 µg/mL). It also gave an MIC (Enterococcus sp. [3]) greater than 500 µM, an MIC [28] greater than 125 µM and an IC50 (HepG2) greater than 30 µM. For the same compound, the MIC (Candida albicans [29]) was greater than 125 µM, the MIC [30] was greater than 500 µM and the MIC (Candida albicans [31]) was greater than 125 µM. For the same compound, the IC50 (MDCK) was greater than 30 µM, the viability at 48 h, 30 µM [32] was 126% and the MIC (Klebsiella pneumoniae [33]) was greater than 500 µM. The MIC (Lichtheimia corymbifera [34]) was greater than 125 µM, the MIC (Candida tropicalis [35]) was greater than 125 µM and the MIC (Nakaseomyces glabratus [36]) was greater than 125 µM. For the same compound, the MIC (Pichia kudriavzevii [37]) was greater than 125 µM, the MIC [38] was 0.03 µM (≈ 0.0118 µg/mL) and the MIC (Escherichia coli [39]) was greater than 500 µM. It also gave a viability at 48 h, 30 µM [40] of 100%, an MIC (Trichosporon asahii [41]) greater than 125 µM and an MIC (Aspergillus fumigatus [42]) greater than 125 µM. It also gave an MIC (Staphylococcus aureus [43]) greater than 500 µM, an MIC [44] greater than 125 µM and an MIC (Staphylococcus aureus [4]) greater than 500 µM. The MIC (Mycobacterium kansasii [45]) was 0.03 µM (≈ 0.0118 µg/mL).
